Data as given in ChEMBL document CHEMBL1144535, “3D pharmacophore based virtual screening of T-type calcium channel blockers” (Bioorg Med Chem, 2007).
Activity calls are given as the source filed them. The rule behind the calls is not given here.

What was measured:
Assay type in all cases: cell-based
[1] = target: T1, Voltage-dependent T-type calcium channel subunit alpha-1G (Homo sapiens, UniProt O43497); experiment: Inhibition of alpha-1G T-type calcium channel expressed in HEK293 cells by electrophysiological method
[2] = target: T1, Voltage-dependent T-type calcium channel subunit alpha-1G; experiment: Inhibition of alpha-1G T-type calcium channel expressed in HEK293 cells at 10 uM by electrophysiological method
[3] = target: Voltage-dependent T-type calcium channel subunit alpha-1H (Homo sapiens) (UniProt O95180); experiment: Inhibition of alpha-1H T-type calcium channel Cav3.2 expressed in Xenopus unfertilized oocytes at 100 uM by two-electrode voltage clamp method; conditions: Oocyte
[4] = Inhibition of alpha-1B N-type calcium channel expressed in HEK293 cells by electrophysiological method

Sequence of Voltage-dependent T-type calcium channel subunit alpha-1H (Homo sapiens) (O95180 whole entry): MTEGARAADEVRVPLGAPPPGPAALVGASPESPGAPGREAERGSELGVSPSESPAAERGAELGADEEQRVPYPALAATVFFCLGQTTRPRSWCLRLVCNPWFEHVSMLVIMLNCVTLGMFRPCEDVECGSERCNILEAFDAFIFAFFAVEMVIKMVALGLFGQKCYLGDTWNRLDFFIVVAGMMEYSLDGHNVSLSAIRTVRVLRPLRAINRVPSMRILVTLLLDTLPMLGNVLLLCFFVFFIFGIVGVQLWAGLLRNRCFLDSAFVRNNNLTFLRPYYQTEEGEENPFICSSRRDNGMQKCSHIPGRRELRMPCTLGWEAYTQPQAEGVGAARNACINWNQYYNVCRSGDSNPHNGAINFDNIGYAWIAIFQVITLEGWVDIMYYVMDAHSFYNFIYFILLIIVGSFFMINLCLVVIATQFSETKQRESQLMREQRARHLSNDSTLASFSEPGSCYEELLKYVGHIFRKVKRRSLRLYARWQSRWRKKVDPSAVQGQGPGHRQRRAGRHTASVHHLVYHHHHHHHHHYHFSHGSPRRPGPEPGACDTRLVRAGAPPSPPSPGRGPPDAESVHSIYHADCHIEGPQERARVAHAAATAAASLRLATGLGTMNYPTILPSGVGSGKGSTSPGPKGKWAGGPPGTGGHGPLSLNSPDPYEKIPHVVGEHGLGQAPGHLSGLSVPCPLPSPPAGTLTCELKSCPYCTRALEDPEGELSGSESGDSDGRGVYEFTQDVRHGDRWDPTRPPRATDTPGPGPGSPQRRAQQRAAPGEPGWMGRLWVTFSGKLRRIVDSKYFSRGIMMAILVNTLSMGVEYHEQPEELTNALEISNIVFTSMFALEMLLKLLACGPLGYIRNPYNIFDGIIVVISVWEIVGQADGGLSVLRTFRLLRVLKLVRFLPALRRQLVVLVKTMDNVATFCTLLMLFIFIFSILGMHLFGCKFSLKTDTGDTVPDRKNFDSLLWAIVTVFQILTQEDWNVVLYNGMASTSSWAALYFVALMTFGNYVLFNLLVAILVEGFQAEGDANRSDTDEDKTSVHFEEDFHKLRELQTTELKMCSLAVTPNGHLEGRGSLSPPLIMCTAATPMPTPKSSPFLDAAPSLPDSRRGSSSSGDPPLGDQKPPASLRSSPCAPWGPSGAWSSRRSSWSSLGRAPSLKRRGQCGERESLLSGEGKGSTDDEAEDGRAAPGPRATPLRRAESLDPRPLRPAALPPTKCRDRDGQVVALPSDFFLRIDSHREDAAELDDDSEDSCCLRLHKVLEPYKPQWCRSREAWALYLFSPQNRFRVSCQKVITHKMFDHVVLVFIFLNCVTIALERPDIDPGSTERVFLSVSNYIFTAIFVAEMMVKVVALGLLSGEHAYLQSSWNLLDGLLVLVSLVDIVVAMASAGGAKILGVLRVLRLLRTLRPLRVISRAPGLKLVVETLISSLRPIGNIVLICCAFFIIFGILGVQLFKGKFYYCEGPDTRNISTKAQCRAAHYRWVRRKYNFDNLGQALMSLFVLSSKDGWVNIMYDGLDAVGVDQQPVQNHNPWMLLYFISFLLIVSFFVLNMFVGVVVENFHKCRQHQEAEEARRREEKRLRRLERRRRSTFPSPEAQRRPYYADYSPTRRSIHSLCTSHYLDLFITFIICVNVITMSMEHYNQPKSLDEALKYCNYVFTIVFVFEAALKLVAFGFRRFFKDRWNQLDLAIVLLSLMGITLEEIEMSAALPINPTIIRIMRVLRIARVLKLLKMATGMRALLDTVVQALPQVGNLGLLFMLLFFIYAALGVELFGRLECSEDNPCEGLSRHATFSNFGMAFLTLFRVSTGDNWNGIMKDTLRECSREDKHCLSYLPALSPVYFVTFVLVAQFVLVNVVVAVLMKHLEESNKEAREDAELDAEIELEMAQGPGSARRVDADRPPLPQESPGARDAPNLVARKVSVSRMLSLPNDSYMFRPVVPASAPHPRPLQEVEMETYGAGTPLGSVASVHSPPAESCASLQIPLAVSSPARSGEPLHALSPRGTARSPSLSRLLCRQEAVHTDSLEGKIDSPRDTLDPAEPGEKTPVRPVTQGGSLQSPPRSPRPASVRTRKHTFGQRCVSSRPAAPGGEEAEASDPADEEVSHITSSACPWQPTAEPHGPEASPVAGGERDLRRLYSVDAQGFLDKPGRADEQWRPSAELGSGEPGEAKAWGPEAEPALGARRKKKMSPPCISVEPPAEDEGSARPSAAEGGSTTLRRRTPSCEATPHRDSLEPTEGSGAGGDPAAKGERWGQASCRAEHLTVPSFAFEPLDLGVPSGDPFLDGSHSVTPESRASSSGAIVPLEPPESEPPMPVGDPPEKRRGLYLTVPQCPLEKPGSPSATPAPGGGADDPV
T1 sequence (O43497 whole entry): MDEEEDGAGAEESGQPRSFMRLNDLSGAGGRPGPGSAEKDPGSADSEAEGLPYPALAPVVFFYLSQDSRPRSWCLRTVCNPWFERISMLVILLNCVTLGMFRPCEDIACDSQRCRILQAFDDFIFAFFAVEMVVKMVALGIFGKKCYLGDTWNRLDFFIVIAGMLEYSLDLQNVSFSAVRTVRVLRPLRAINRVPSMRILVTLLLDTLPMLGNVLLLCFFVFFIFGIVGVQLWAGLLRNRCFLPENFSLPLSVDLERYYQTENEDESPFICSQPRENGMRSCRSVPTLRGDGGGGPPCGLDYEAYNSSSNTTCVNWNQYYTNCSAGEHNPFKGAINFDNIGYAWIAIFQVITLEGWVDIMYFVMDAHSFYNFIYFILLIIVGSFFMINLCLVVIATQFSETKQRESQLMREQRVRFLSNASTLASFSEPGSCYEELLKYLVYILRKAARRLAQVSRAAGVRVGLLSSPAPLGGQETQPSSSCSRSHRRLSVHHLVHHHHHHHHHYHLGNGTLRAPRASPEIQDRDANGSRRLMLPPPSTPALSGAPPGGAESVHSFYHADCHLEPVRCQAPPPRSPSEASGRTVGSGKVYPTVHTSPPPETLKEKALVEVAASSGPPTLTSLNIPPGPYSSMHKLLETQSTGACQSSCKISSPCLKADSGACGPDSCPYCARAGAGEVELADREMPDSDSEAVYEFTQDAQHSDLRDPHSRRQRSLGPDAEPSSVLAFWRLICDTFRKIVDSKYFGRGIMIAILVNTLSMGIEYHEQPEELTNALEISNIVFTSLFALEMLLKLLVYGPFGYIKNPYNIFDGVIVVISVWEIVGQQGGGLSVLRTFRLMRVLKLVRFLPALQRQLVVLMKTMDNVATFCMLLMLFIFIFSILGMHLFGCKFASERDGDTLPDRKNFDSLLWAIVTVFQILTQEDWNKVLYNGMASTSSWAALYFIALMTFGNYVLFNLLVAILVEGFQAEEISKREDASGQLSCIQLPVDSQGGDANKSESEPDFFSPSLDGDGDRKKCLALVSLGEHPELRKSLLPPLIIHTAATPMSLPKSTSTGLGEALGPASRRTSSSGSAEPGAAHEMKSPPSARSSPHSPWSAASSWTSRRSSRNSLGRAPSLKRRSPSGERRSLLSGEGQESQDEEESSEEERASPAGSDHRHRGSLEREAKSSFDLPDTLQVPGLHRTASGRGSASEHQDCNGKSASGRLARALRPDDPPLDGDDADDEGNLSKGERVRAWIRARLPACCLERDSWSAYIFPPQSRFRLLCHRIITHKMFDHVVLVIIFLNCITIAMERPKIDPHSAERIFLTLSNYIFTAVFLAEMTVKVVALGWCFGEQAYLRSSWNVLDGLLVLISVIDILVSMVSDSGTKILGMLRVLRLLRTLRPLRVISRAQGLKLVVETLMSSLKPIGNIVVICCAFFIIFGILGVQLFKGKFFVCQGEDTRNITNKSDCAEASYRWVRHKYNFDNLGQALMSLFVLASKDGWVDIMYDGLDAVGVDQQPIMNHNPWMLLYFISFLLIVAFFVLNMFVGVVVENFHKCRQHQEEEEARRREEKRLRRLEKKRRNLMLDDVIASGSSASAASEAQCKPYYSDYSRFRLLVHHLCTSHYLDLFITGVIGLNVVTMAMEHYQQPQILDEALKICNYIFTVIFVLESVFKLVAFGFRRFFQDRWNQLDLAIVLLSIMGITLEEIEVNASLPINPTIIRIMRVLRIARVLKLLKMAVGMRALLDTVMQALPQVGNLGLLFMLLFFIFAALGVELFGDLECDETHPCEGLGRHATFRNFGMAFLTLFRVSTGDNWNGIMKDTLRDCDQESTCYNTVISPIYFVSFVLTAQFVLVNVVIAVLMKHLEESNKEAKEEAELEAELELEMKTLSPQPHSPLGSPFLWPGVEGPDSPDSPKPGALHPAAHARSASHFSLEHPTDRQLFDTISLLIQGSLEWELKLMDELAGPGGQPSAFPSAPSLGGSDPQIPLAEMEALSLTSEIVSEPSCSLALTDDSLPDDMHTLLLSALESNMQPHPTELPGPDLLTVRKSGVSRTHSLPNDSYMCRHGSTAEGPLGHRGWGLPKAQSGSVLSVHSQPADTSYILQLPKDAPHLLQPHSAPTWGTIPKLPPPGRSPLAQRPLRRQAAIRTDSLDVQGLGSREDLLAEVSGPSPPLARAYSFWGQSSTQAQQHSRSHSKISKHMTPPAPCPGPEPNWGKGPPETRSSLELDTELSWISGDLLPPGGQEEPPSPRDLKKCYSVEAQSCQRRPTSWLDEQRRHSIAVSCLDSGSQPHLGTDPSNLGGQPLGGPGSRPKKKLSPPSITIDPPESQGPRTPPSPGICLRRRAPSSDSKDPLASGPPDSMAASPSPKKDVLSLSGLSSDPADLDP

CN(C)CCNC(=O)c1ccc2c(=O)n(Cc3ccc(Cl)cc3)c(=S)[nH]c2c1
IC50 [1]: 53.5 µM
inhibition [2]: 43.5%

O=S(=O)(c1cccc2nonc12)N1CCN(C(c2ccccc2)c2ccccc2)CC1
inhibition [3]: 15.2%

O=C(NCCCN1CCCCC1)c1ccc2c(=O)n(Cc3ccc(Cl)cc3)c(=S)[nH]c2c1
IC50 [1]: 2.08 µM
IC50 [4]: 8.1 µM
inhibition [3]: 72.9%
inhibition [2]: 34.3%

O=C1c2ccccc2C(=O)N1CC#CCN1CCN(C(c2ccccc2)c2ccccc2)CC1
Activity [3]: inactive

O=C(CCN1C(=O)c2ccccc2C1=O)N1CCN(Cc2ccc(Cl)cc2Cl)CC1
inhibition [3]: 12%

O=C(CCC(=O)Nc1nc(-c2cc3cc(Cl)ccc3oc2=O)cs1)NCCCN1CCCC1
inhibition [3]: 43.9%

O=C1CC(N2CCN(C(c3ccccc3)c3ccc(Cl)cc3)CC2)C(=O)N1c1cccc(Cl)c1 (stereo not drawn)
inhibition [3]: 16.6%

O=C(CSC1CN(C(c2ccccc2)c2ccccc2)C1)NNC(=O)c1ccc(Cl)cc1
inhibition [3]: 28.3%

O=C(NCCCN1CCN(c2ccccc2F)CC1)c1ccc(CNc2nc(=S)[nH]c3ccccc23)cc1
inhibition [3]: inactive

CN(CCCNC(=O)c1ccc2c(=O)n(Cc3ccc(Cl)cc3)c(=S)[nH]c2c1)Cc1ccccc1
IC50 [1]: 4.69 µM
inhibition [2]: 37.5%

CCOC(=O)c1c(NC(=O)c2ccc(S(=O)(=O)N(C)c3ccccc3)cc2)sc2c1CCN(CC)C2
inhibition [3]: 22%

O=C(NCCCN1CCCCCC1)c1ccc2c(=O)n(Cc3ccc(Cl)cc3)c(=S)[nH]c2c1
IC50 [1]: 1.41 µM
IC50 [4]: 5.8 µM
inhibition [2]: 85.4%

OC(CN1CCN(C(c2ccccc2)c2ccccc2)CC1)Oc1cccc(C(F)(F)F)c1 (stereo not drawn)
inhibition [3]: 58.3%

CCOC(=O)c1c(C)n(Cc2ccccc2)c2ccc(OCC(O)CN3CCN(Cc4ccccc4)CC3)cc12 (stereo not drawn)
inhibition [3]: 8.83%

CCN(CC)CCNC(=O)C1c2ccccc2C(=O)N(Cc2ccc(F)cc2)C1c1ccc(OC)cc1 (stereo not drawn)
inhibition [3]: 52.2%

CCN(CC)CCNC(=O)c1cn(-c2ccc(Cl)cc2)c(=O)c2ccccc12
inhibition [3]: 13%

CC1CCN(CCCNC(=O)c2ccc3c(=O)n(Cc4ccc(Cl)cc4)c(=S)[nH]c3c2)CC1
IC50 [1]: 1.1 µM
IC50 [4]: 6.4 µM
inhibition [2]: 89.2%

CCCCN(C)CCNC(=O)c1ccc2c(=O)n(Cc3ccc(Cl)cc3)c(=S)[nH]c2c1
IC50 [1]: 11.4 µM
inhibition [2]: 34.3%

O=C(NCCCN1CCOCC1)c1ccc2c(=O)n(Cc3ccccc3)c(=S)[nH]c2c1
inhibition [3]: 15.9%

FC(F)(F)c1cccc(N2CCN(CCNCc3cc(-c4ccccc4C(F)(F)F)no3)CC2)c1
IC50 [1]: 1.02 µM

COC(=O)c1ccc(S(=O)(=O)N2CCN(C(c3ccccc3)c3ccccc3)CC2)n1C
Activity [3]: inactive

O=C(NCCCn1ccnc1)c1ccc2c(=O)n(-c3ccc(F)c(Cl)c3)c(=S)[nH]c2c1
Activity [3]: inactive

COc1cccc(NC2=C3C(=O)c4ccccc4C4ON=C(C(N5CCN(Cc6cc(Cl)ccc6OC)CC5)=C2)C34)c1 (stereo not drawn)
inhibition [3]: 16.1%

O=C1c2ccccc2C(=O)N1CCCN1CCN(Cc2c(F)cccc2Cl)CC1
inhibition [3]: 8.1%

O=C(CCN1C(=O)c2ccccc2C1=O)N1CCN(C(c2ccccc2)c2ccccc2)CC1
inhibition [3]: 43.3%

CCN(CC)CCNC(=O)c1ccc(CNc2nc(=S)[nH]c3ccccc23)cc1
inhibition [3]: 9.54%

Cc1ccc(N(CC(O)CN(Cc2ccccc2)Cc2ccccc2)S(=O)(=O)c2ccccc2[N+](=O)[O-])cc1 (stereo not drawn)
inhibition [3]: 34.7%

CCC1CCCCN1CCCNC(=O)c1ccc2c(=O)n(Cc3ccc(Cl)cc3)c(=S)[nH]c2c1 (stereo not drawn)
IC50 [4]: 2.1 µM
inhibition [3]: 98.3%
inhibition [2]: 88.3%

CCOC(=O)c1cc2c(c(CSc3nc4ccccc4c(=O)n3CCCN3CCCCC3)c1)OCOC2
inhibition [3]: 35.3%

COc1ccccc1-c1cc(CNCCN2CCN(c3ccc(C)cc3C)CC2)on1
IC50 [1]: 2.02 µM

O=C(CN1CCN(C2c3ccccc3-c3ccccc32)CC1)Nc1cc(C(F)(F)F)ccc1Cl
Activity [3]: inactive
